Results reported in PubChem BioAssay (NCI).
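Each compound was tested at five concentrations against cells in 96-well plates for 48 hours. TGI: concentration producing complete growth inhibition.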

What was measured:
Assay in all cases: growth of human tumour cells (NCI), 48 h
786-0 renal = tested on: 786-0 renal
A549 NSCLC = tested on: A549 NSCLC
ACHN renal = tested on: ACHN renal
CAKI-1 renal = tested on: CAKI-1 renal
CCRF-CEM leukemia = tested on: CCRF-CEM leukemia
DU-145 prostate = tested on: DU-145 prostate
HS 578T breast = tested on: HS 578T breast
IGROV1 ovarian = tested on: IGROV1 ovarian
NCI-H226 lung = tested on: NCI-H226 lung
NCI-H460 lung = tested on: NCI-H460 lung
OVCAR-8 ovarian = tested on: OVCAR-8 ovarian
PC-3 prostate = tested on: PC-3 prostate
SF-268 CNS = tested on: SF-268 CNS
SF-539 CNS = tested on: SF-539 CNS
SK-MEL-28 melanoma = tested on: SK-MEL-28 melanoma
SK-MEL-5 melanoma = tested on: SK-MEL-5 melanoma
T-47D breast = tested on: T-47D breast
UACC-257 melanoma = tested on: UACC-257 melanoma
UACC-62 melanoma = tested on: UACC-62 melanoma

| SMILES | TGI (786-0 renal) | TGI (A549 NSCLC) | TGI (ACHN renal) | TGI (CAKI-1 renal) | TGI (CCRF-CEM leukemia) | TGI (DU-145 prostate) | TGI (HS 578T breast) | TGI (IGROV1 ovarian) | TGI (NCI-H226 lung) | TGI (NCI-H460 lung) | TGI (OVCAR-8 ovarian) | TGI (PC-3 prostate) | TGI (SF-268 CNS) | TGI (SF-539 CNS) | TGI (SK-MEL-28 melanoma) | TGI (SK-MEL-5 melanoma) | TGI (T-47D breast) | TGI (UACC-257 melanoma) | TGI (UACC-62 melanoma) |
| --- | --- | --- | --- | --- | --- | --- | --- | --- | --- | --- | --- | --- | --- | --- | --- | --- | --- | --- | --- |
| CCOC(=O)c1cn(CC)c2ccc3ccsc3c2c1=O | > 100 µM | > 100 µM | > 100 µM | > 100 µM | > 100 µM | > 100 µM | > 100 µM | > 100 µM | > 100 µM | > 100 µM | > 100 µM | > 100 µM | > 100 µM | > 100 µM | > 100 µM | > 100 µM | > 100 µM | > 100 µM | > 100 µM |
| COc1ccc(-n2c(Cn3nnc(-c4cccnc4)n3)nn(C3OC(COC(=O)c4ccccc4)C(OC(=O)c4ccccc4)C3OC(=O)c3ccccc3)c2=S)cc1 (stereo unspecified) | > 100 µM | > 100 µM | > 100 µM | > 100 µM | > 100 µM | > 100 µM | > 100 µM | > 100 µM | 36.1 µM | > 100 µM | > 100 µM | > 100 µM | > 100 µM | > 100 µM | > 100 µM | > 100 µM | > 100 µM | > 100 µM | > 100 µM |
| Cc1c(-c2nc(N)c(C#N)c(N)c2C#N)c(=O)oc2ccccc12 | > 100 µM | > 100 µM | > 100 µM | > 100 µM | > 100 µM | > 100 µM | > 100 µM | > 100 µM | > 100 µM | > 100 µM | > 100 µM | > 100 µM | > 100 µM | > 100 µM | > 100 µM | > 100 µM | > 100 µM | > 100 µM | > 100 µM |
| Cc1cnc2c(c1)C(=O)N(c1ccc([N+](=O)[O-])cc1)S2(=O)=O | > 100 µM | > 100 µM | > 100 µM | > 100 µM | > 100 µM | > 100 µM | > 100 µM | > 100 µM | 78.5 µM | > 100 µM | > 100 µM | > 100 µM | > 100 µM | > 100 µM | > 100 µM | > 100 µM | > 100 µM | > 100 µM | > 100 µM |
| COc1ccc2c(c1)-c1nc(=O)n(CCCN(C)C)c3ccc([N+](=O)[O-])c(c13)N2 | 1.94 µM | 17 µM | 15 µM | 5.26 µM | 3.87 µM | 17.1 µM | 4.99 µM | 12.3 µM | 27.5 µM | 15.1 µM | 19.4 µM | 20.9 µM | 17.8 µM | 9.63 µM | 4.3 µM | 4.4 µM | 32.2 µM | 6.85 µM | 25.2 µM |
| O=C(O)C1=CN(c2ccncc2)C(c2ccco2)=CC1c1ccccc1[N+](=O)[O-] (stereo unspecified) | 4.15 µM | 34.2 µM | 3.59 µM | 34.1 µM | > 100 µM | 26.7 µM | 62.4 µM | 5.98 µM | 38.3 µM | 36.3 µM | 54.8 µM | 28 µM | 25.9 µM | 10.3 µM | 40.9 µM | > 49.6 µM | 25 µM | 5.35 µM | 33.6 µM |
| COc1cc2cc3c4cc(OC)c(OC)cc4cc[n+]3c(C)c2cc1OC | 37.9 µM | > 100 µM | > 100 µM | > 100 µM | > 100 µM | > 100 µM | > 100 µM | > 100 µM | > 100 µM | > 100 µM | > 100 µM | > 100 µM | > 100 µM | > 100 µM | > 100 µM | > 100 µM | > 100 µM | > 100 µM | 98.6 µM |
| O=C1CCN2C(=N1)Sc1ccccc12 | > 100 µM | > 100 µM | > 100 µM | > 100 µM | > 100 µM | > 100 µM | > 100 µM | > 100 µM | > 100 µM | > 100 µM | > 100 µM | > 100 µM | > 100 µM | > 100 µM | > 100 µM | > 100 µM | > 100 µM | > 100 µM | > 100 µM |
| COC(=O)c1ccc(C)cc1C1CN=NC12Cc1cc(C)ccc1C2=O (stereo unspecified) | > 92.6 µM | > 100 µM | > 100 µM | 97.3 µM | > 100 µM | 97.6 µM | 41.3 µM | > 100 µM | 88 µM | > 65.4 µM | > 100 µM | 58.1 µM | > 100 µM | 36.2 µM | > 100 µM | 21.6 µM | > 100 µM | > 94.2 µM | > 87.3 µM |
| C/C(=C\CNc1ncnc2c1ncn2CCC(=O)OC(C)(C)C)CO | > 100 µM | > 100 µM | > 100 µM | > 100 µM | > 100 µM | > 100 µM | > 100 µM | > 100 µM | > 100 µM | > 100 µM | > 100 µM | > 100 µM | > 100 µM | > 100 µM | > 100 µM | > 100 µM | > 100 µM | > 100 µM | > 100 µM |
| CCCCCCCCCCCCCCCC(=O)Nc1ccn(C2CCC(COP(=O)(O)OCC3OC(n4cc(F)c(=O)[nH]c4=O)CC3OC(C)=O)O2)c(=O)n1 (stereo unspecified) | > 100 µM | > 54.2 µM | > 100 µM | > 42.5 µM | 19.7 µM | > 100 µM | > 100 µM | > 100 µM | > 100 µM | > 100 µM | > 72.2 µM | 56.8 µM | > 82.8 µM | > 23.3 µM | 43.8 µM | 26.9 µM | > 66.5 µM | 53.6 µM | 61.6 µM |
| O=C(NCCc1ccccc1)c1cc(/C=C/c2cc(O)ccc2O)ccc1O | 6.18 µM | > 41.1 µM | 5.59 µM | 13.2 µM | > 40.3 µM | 28.1 µM | > 40.4 µM | 11.3 µM | 27.8 µM | 24.6 µM | 16.3 µM | 11.4 µM | 10.2 µM | 5.94 µM | 10.4 µM | 7.32 µM | 3.86 µM | 8.57 µM | 5.03 µM |
| CCCCCCCC(CC(=O)NC(CO)C(=O)NC(CO)CC(C)C)OC(=O)CC(CCCCCCC)OC(=O)CC(CCCCCCC)OC1OC(C)C(O)C(OC2OC(C)C(O)C(O)C2O)C1O (stereo unspecified) | 35 µM | 31.7 µM | 25.5 µM | 33.2 µM | 15 µM | 25.3 µM | 22.7 µM | 26.4 µM | 38.7 µM | 19.1 µM | 34.4 µM | 25.3 µM | 23.2 µM | 24.7 µM | 21.2 µM | 21.3 µM | 26.6 µM | 26.6 µM | 27.9 µM |
| C=C1CC(C)(COc2cc(=O)oc3ccccc23)OC1=O (stereo unspecified) | 11.8 µM | 28.2 µM | 15.8 µM | 6.32 µM | 5.08 µM | 19 µM | 30.8 µM | 12.5 µM | 29.1 µM | 27.5 µM | 24.2 µM | 17.5 µM | 40.5 µM | 12.6 µM | 10.8 µM | 14.7 µM | 13.8 µM | 6.1 µM | 8.65 µM |
| Nc1nc(Br)nc2ncn(C3CC(O)C(CO)O3)c12 (stereo unspecified) | > 100 µM | > 100 µM | > 100 µM | > 100 µM | > 100 µM | > 100 µM | > 100 µM | > 100 µM | > 100 µM | > 100 µM | > 100 µM | > 100 µM | > 100 µM | > 100 µM | > 100 µM | > 100 µM | > 100 µM | > 100 µM | > 100 µM |
| N#CCC1C2CC3C(C2=O)C13 (stereo unspecified) | > 100 µM | > 100 µM | > 100 µM | > 100 µM | > 100 µM | > 100 µM | > 100 µM | > 100 µM | > 100 µM | > 100 µM | > 100 µM | > 100 µM | > 100 µM | > 100 µM | > 100 µM | > 100 µM | > 100 µM | > 100 µM | > 100 µM |
| CC1(C)SCc2nc3ccccc3n21 | > 100 µM | > 100 µM | > 100 µM | > 100 µM | > 100 µM | > 100 µM | > 100 µM | > 100 µM | > 100 µM | > 100 µM | > 100 µM | > 100 µM | > 100 µM | > 100 µM | > 100 µM | > 100 µM | > 100 µM | > 100 µM | > 100 µM |
| CCCn1c(=O)c2nn3c(=O)n(CCC)c(=O)c3nn2c1=O | > 100 µM | > 100 µM | > 100 µM | > 100 µM | > 100 µM | > 100 µM | > 100 µM | > 100 µM | > 100 µM | > 100 µM | > 100 µM | > 100 µM | > 100 µM | > 100 µM | > 100 µM | > 100 µM | > 100 µM | > 100 µM | > 100 µM |
| COc1ccccc1N1C(=O)CSC1c1cc(OC)c(OC)c(OC)c1 (stereo unspecified) | > 100 µM | > 100 µM | > 100 µM | > 100 µM | 76.6 µM | > 100 µM | > 100 µM | > 100 µM | > 100 µM | > 100 µM | > 100 µM | > 100 µM | > 100 µM | > 100 µM | > 100 µM | > 100 µM | > 38.3 µM | > 100 µM | > 66.1 µM |
